Assay results taken from paper PMC12198407, “Preclinical and first-in-human of purinostat mesylate, a novel selective HDAC I/IIb inhibitor, in relapsed/refractory multiple myeloma and lymphoma” (Signal Transduction and Targeted Therapy, 2025).
Read-outs that look alike come from different tables or passages of the source.

What was measured:
[1] = Metabolite profiling in plasma, bile, urine, feces; assay type: in vivo, SD rats; details: for share of plasma AUC0-96h: [14C] 3 mg/100 µCi/kg i.v.; for amount in bile, % of administered dose: 0 to 72 hours; for amount in feces, % of administered dose / amount in urine, % of administered dose: 0 to 168 hours
Description: Following a single intravenous administration of [14C] Purinostat Mesylate at a dose of 3 mg/100 µCi/kg in male and female rats, a total of 14 metabolites were identified, in addition to the parent compound. These were designated as M382, M396, M474, M475, M490, M516, M517, M532, M546, M548, M558, M666, M708a, and M708b. Among these, M382 is an acetylated product of the parent drug after N-dealkylation, M396 is a carboxylic acid derivative of M382, M474 is a reduction product of the parent drug, M475 is a hydroxylated product derived from the amino conversion of M474, M490 is a mono-oxidation product of M474, M516 is an acetylated product of M474, M517 is a hydroxylated product derived from the amino conversion of M516, M532 is an acetylated product of the parent drug, M546 is a methylated product of M532, M548 is a dioxidation product of M516, M558 is a glucuronic acid conjugate of M382, M666 is a glucuronic acid conjugate of the parent drug, M708a is a mono-oxidation glucuronic acid conjugate of M516, and M708b is a glucuronic acid conjugate of M532.

89 kinases = test: Kinase panel; assay type: biochemical; details: 1 μM
Description: The prototype drug Purinostat was tested for its inhibitory activity against 89 kinases that are strongly associated with tumors.

r/r DLBCL = details: cited from earlier work
[2] = system: BCR-ABL positive B-ALL PDX; test: PDX model of clinical B-ALL patient; assay type: in vivo, NOD/SCID mice; details: positive control
Description: A clinical sample from a B-ALL patient was obtained, characterized by BCR-ABL positivity and relapse after first-line treatment.

[3] = system: human double-hit lymphoma SUDHL-6; test: SUDHL-6 subcutaneous tumor model; assay type: in vivo, NOD/SCID mice; details: positive control groups
ARD = test: Cell viability CCK8; assay type: cell-based; details: Homo sapiens, 72 h, no unit in table, read-out: Antiproliferative activity IC50
Description: (§1) PM, panobinostat, Pom and DXM were dissolved in DMSO and stored at -20°C freezer. Cells were seeded at a density of 1.0-3.0 × 10^4 cells/well/100 μL in 96-well plates. After overnight incubation, cells were treated with the drug-containing culture medium for 24, 48, or 72 hours, and cell viability was measured using CCK8 (Oriscience, Chengdu, China) at the indicated time points with Biotek Cytation 3 at a wavelength of 450 nm. The IC50 values were calculated using GraphPad Prism 9.4.1, and Calcusyn 2.0 software was employed to calculate the CI values.

Daudi = test: Cell viability CCK8; assay type: cell-based; details: Homo sapiens, 72 h, no unit in table, read-out: Antiproliferative activity IC50
Description: as §1

Ramos = test: Cell viability CCK8; assay type: cell-based; details: Homo sapiens, 72 h, no unit in table, read-out: Antiproliferative activity IC50
Description: as §1

RPMI-8226 = test: Cell viability CCK8; assay type: cell-based; details: Homo sapiens; RPMI-8226, 72 h; no unit in table; read-out: Antiproliferative activity IC50
Description: as §1

TMD-8 = test: Cell viability CCK8; assay type: cell-based; details: Homo sapiens, TMD8; TMD-8, 72 h; no unit in table; read-out: Antiproliferative activity IC50
Description: as §1

RPMI-8226R = test: Cell viability CCK8; assay type: cell-based; details: Homo sapiens, 72 h, no unit in table, read-out: Antiproliferative activity IC50
Description: as §1

OPM2 = test: Cell viability CCK8; assay type: cell-based; details: Homo sapiens, OPM-2; OPM2, 72 h; no unit in table; read-out: Antiproliferative activity IC50
Description: as §1

Karpas299 = test: Cell viability CCK8; assay type: cell-based; details: Homo sapiens, KARPAS-299; Karpas299, 72 h; no unit in table; read-out: Antiproliferative activity IC50
Description: as §1

MM1S = test: Cell viability CCK8; assay type: cell-based; details: Homo sapiens, MM1.S, 72 h, no unit in table (b9: nM), read-out: Antiproliferative activity IC50
Description: as §1

KMS-11 = test: Cell viability CCK8; assay type: cell-based; details: Homo sapiens; KMS-11, 72 h; no unit in table; read-out: Antiproliferative activity IC50
Description: as §1

SUDHL-4 = test: Cell viability CCK8; assay type: cell-based; details: Homo sapiens, SU-DHL-4; SUDHL-4, 72 h; no unit in table; read-out: Antiproliferative activity IC50
Description: as §1

NKYS = test: Cell viability CCK8; assay type: cell-based; details: Homo sapiens, 72 h, no unit in table, read-out: Antiproliferative activity IC50
Description: as §1

RL = test: Cell viability CCK8; assay type: cell-based; details: Homo sapiens, 72 h, no unit in table, read-out: Antiproliferative activity IC50
Description: as §1

MM1R = test: Cell viability CCK8; assay type: cell-based; details: Homo sapiens, MM.1R, 72 h, no unit in table, read-out: Antiproliferative activity IC50
Description: as §1

AMO1 = test: Cell viability CCK8; assay type: cell-based; details: Homo sapiens; AMO1, 72 h; no unit in table; read-out: Antiproliferative activity IC50
Description: as §1

Raji = test: Cell viability CCK8; assay type: cell-based; details: Homo sapiens, 72 h, no unit in table, read-out: Antiproliferative activity IC50
Description: as §1

[4] = target: human ether-à-go-go-related gene (hERG) channel (Homo sapiens, UniProt Q12809); test: hERG inhibition; assay type: biochemical
Sequence of human ether-à-go-go-related gene (hERG) channel (Q12809 whole entry): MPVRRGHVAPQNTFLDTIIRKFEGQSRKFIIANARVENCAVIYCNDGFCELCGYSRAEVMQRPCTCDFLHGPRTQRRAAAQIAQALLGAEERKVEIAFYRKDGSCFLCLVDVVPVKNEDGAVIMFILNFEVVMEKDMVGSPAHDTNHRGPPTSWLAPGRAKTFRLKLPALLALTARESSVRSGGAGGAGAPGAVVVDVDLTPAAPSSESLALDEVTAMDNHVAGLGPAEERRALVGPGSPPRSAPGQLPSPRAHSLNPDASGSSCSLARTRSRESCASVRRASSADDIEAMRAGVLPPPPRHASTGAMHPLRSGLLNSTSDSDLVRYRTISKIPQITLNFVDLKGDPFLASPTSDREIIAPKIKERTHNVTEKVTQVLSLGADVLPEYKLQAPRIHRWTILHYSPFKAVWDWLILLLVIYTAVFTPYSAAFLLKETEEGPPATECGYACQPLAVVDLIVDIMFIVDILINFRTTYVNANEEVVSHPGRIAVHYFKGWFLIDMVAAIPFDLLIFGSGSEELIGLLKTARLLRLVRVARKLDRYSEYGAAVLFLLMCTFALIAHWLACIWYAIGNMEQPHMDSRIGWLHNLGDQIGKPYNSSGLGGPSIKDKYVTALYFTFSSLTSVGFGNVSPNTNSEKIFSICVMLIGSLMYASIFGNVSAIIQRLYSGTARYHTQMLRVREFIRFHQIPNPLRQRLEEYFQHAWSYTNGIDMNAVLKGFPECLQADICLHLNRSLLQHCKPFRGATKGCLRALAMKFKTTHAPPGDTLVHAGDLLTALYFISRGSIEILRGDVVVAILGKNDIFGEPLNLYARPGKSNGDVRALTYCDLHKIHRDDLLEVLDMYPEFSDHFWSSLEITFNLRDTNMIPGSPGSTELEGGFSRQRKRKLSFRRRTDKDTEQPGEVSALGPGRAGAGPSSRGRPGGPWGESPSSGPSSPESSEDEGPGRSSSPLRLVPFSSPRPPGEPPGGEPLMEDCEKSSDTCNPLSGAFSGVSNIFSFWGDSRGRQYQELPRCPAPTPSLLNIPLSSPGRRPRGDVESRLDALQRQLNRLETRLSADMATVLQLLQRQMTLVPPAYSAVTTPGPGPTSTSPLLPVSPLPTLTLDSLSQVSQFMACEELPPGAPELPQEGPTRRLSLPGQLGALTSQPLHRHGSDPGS

[5] = system: primary MM cells from relapsed patients A and B; test: Cell apoptosis analysis, primary cells; assay type: cell-based, human; details: 5 nM, 48 h
Description: (§2) CD138^+, CD38^+, or CD20^+ primary cells were obtained from plasma cell leukemia patients and DLBCL patients who had relapsed after multiple drug therapies. These patient samples were sourced from West China Hospital and had been approved by the clinical ethics committee of West China Hospital of Sichuan University (Chengdu, China). The clinical information of these patients was summarized in Supplementary Table 2. The patient primary cells were cultured in 6-well plates at a density of 1×10^6 cells/mL, and treated with control, PM, panobinostat, Pom and DXM at indicated concentrations for 48 hours. CD138, CD38, and CD20 monoclonal antibodies, Annexin V-APC and 7AAD apoptosis detection kits were used following the manufacturer’s instructions. The apoptosis cells were analyzed by flow cytometry (Thermo, AttuneTMNxT).

[6] = system: diffuse large B-cell lymphoma (DLBCL) cells from patient C; test: Cell apoptosis analysis, primary cells; assay type: cell-based, human; details: 5 nM, 48 h
Description: as §2

[7] = system: human multiple myeloma RPMI-8226; assay type: in vivo
MM1S xenograft = MM1S xenograft mouse model; assay type: in vivo, NOD-SCID mice
HDAC I/IIb = system: HDAC I/IIb; set-up: method as in PMID 27186676, PMID 31439580; details: range over isoforms; read-out: IC50 against HDAC I/IIb; cited from earlier work
mouse B-cell lymphoma = test: Ighmyc transgenic B-cell lymphoma model, survival; assay type: in vivo, mice; details: positive control groups
r/r MM = details: cited from earlier work
HDAC IIa/IV = system: HDAC IIa/IV; set-up: method as in PMID 27186676, PMID 31439580; details: range over isoforms; read-out: IC50 against HDAC IIa/IV; cited from earlier work
[8] = positive controls and combinations (PM 5 mg/kg in combinations)

SMILES: CN(Cc1nc2c(N3CCOCC3)nc(-c3ccc(N)cc3)nc2n1C)c1ncc(C(N)=O)cn1 [M474]
- share of plasma AUC0-96h ([1]; female rats): 13.75%
- amount in bile, % of administered dose ([1]; females): 1.16% to 3.30
- amount in feces, % of administered dose ([1]; females): 0.79% to 5.53
- amount in urine, % of administered dose ([1]; females): 0.43% to 0.87
- share of plasma AUC0-96h ([1]; male rats): 13.79%
- amount in bile, % of administered dose ([1]; males): 0.97% to 4.38
- amount in feces, % of administered dose ([1]; males): 1.27% to 6.00
- amount in urine, % of administered dose ([1]; males): 1.02% to 1.92

SMILES: CN(Cc1nc2c(N3CCOCC3)nc(-c3ccc(N)cc3)nc2n1C)c1ncc(C(=O)O)cn1 [M475]
- share of plasma AUC0-96h ([1]; female rats): 4.71% to 9.05
- share of plasma AUC0-96h ([1]; male rats): 4.85% to 6.67

SMILES: CC(=O)Nc1ccc(-c2nc(N3CCOCC3)c3nc(CN(C)c4ncc(C(N)=O)cn4)n(C)c3n2)cc1 [M516]
- share of plasma AUC0-96h ([1]; female rats): 15.61%
- amount in bile, % of administered dose ([1]; females): 5.77% to 7.49
- amount in feces, % of administered dose ([1]; females): 30.10%
- amount in urine, % of administered dose ([1]; females): 2.35% to 2.49
- share of plasma AUC0-96h ([1]; male rats): 17.42%
- amount in bile, % of administered dose ([1]; males): 4.75% to 8.74
- amount in feces, % of administered dose ([1]; males): 27.70%
- amount in urine, % of administered dose ([1]; males): 0.88% to 3.01

SMILES: CC(=O)Nc1ccc(-c2nc(N3CCOCC3)c3nc(CN(C)c4ncc(C(=O)O)cn4)n(C)c3n2)cc1 [M517]
- amount in bile, % of administered dose ([1]; females): 1.16% to 3.30
- amount in feces, % of administered dose ([1]; females): 0.79% to 5.53
- amount in bile, % of administered dose ([1]; males): 0.97% to 4.38
- amount in feces, % of administered dose ([1]; males): 1.27% to 6.00

SMILES: CC(=O)Nc1ccc(-c2nc(N3CCOCC3)c3nc(CN(C)c4ncc(C(=O)NO)cn4)n(C)c3n2)cc1 [M532]
- share of plasma AUC0-96h ([1]; female rats): 4.71% to 9.05
- amount in urine, % of administered dose ([1]; females): 0.43% to 0.87
- share of plasma AUC0-96h ([1]; male rats): 4.85% to 6.67
- amount in urine, % of administered dose ([1]; males): 1.02% to 1.92

SMILES: CONC(=O)c1cnc(N(C)Cc2nc3c(N4CCOCC4)nc(-c4ccc(NC(C)=O)cc4)nc3n2C)nc1 [M546]
- share of plasma AUC0-96h ([1]; female rats): 4.71% to 9.05
- amount in bile, % of administered dose ([1]; females): 1.16% to 3.30
- amount in feces, % of administered dose ([1]; females): 0.79% to 5.53
- share of plasma AUC0-96h ([1]; male rats): 4.85% to 6.67
- amount in bile, % of administered dose ([1]; males): 0.97% to 4.38
- amount in feces, % of administered dose ([1]; males): 1.27% to 6.00

SMILES: CN(Cc1nc2c(N3CCOCC3)nc(-c3ccc(N)cc3)nc2n1C)c1ncc(C(=O)NO)cn1 [Purinostat]
- inhibitory activity against 89 kinases (89 kinases): no significant inhibitory activity

SMILES: O=C(/C=C/c1cccc(S(=O)(=O)Nc2ccccc2)c1)NO [belinostat]
- ORR in r/r DLBCL (r/r DLBCL; SWOG S0520): 10.5%

SMILES: Cc1[nH]c2ccccc2c1CCNCc1ccc(/C=C/C(=O)NO)cc1 [panobinostat, reference compound]
- median survival time [2]: 17 days
- T/C [3]: 92.55±13.13%
- tumor inhibition rate [3]: 12.92%
- IC50 (ARD): 1.82 ± 0.16 nM
- IC50 (Daudi): 6.99 ± 3.9 nM
- IC50 (Ramos): 5 ± 0.53 nM
- IC50 (RPMI-8226): 9.3 ± 0.55 nM
- IC50 (TMD-8): 9.12 ± 0.25 nM
- IC50 (RPMI-8226R): 5.56 ± 0.49 nM
- IC50 (OPM2): 4.4 ± 0.27 nM
- IC50 (Karpas299): 4.03 ± 0.2 nM
- IC50 (MM1S): 2.87 ± 0.12 nM
- IC50 (KMS-11): 7.94 ± 0.59 nM
- IC50 (SUDHL-4): 6.72 ± 0.49 nM
- IC50 (NKYS): 4.81 ± 0.14 nM
- IC50 (RL): 6.43 ± 0.45 nM
- IC50 (MM1R): 0.87 ± 0.01 nM
- IC50 (AMO1): 3.45 ± 0.5 nM
- IC50 (Raji): 5.48 ± 4.81 nM
- IC50 [4]: 3.5 µM
- apoptosis ([5]; patient A): 54.5%
- apoptosis ([5]; patient B): 40.1%
- apoptosis [6]: 20.49%
- T/C [7, 8]: 35.1%
- tumor inhibition rate [7, 8]: 59.79%
- median survival time ([7]; satellite groups, PM 5 mg/kg alone or combined, control regimens): 52.5 days
- tumor inhibition rate (MM1S xenograft; 10 mg/kg i.v. three times a week): 49.37%
- relative tumor growth rate T/C (MM1S xenograft; positive control groups): 45.1%
- tumor inhibition rate (MM1S xenograft; positive control groups, regimens per Table S9): 49.37%
- median survival time (MM1S xenograft; satellite group, positive control): 26.5 days
- IC50 (HDAC I/IIb): 2.1 to 277 nM
- median survival time (mouse B-cell lymphoma): 20 days
- response, monotherapy in r/r MM (r/r MM; phase II): 1 PR and 1 MR in 38 patients
- IC50 (HDAC IIa/IV): 2.7 to 531 nM

SMILES: C/C=C1\NC(=O)[C@H]2CSSCC/C=C/[C@H](CC(=O)N[C@H](C(C)C)C(=O)N2)OC(=O)[C@H](C(C)C)NC1=O [romidepsin]
- response, monotherapy in r/r MM (r/r MM; phase II): 4/12 patients SD

SMILES: O=C(CCCCCCC(=O)Nc1ccccc1)NO [vorinostat]
- ORR in r/r DLBCL (r/r DLBCL): 6%
- response, monotherapy in r/r MM (r/r MM; phase I): 1 MR in 10 patients
